Data taken from US9975896B2, “Inhibitors of transcription factors and uses thereof” (Dana-Farber Cancer Institute, Inc., priority 2013, dated 2018).
Read-outs that look alike come from different tables or passages of the source.

Columns and labels:
BRD1 = target: T1, BRD1 (Homo sapiens, UniProt O95696); test: BromoScan selectivity panel (Kd); format: binding
T1 sequence (O95696 556-688 limits assumed): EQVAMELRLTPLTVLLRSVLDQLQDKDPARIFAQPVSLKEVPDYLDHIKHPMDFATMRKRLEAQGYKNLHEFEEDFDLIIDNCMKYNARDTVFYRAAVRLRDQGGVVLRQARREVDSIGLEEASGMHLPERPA

TAF1L(2) = target: T2, TAF1L(2) (Homo sapiens, UniProt Q8IZX4); test: BromoScan selectivity panel (Kd); format: binding
T2 construct: TAF1L(2)
T2 sequence (Q8IZX4 1517-1626 limits assumed): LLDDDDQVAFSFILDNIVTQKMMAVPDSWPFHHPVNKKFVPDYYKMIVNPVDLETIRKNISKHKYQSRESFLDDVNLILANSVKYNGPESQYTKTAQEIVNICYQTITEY

BRD4(2) = target: T3, BRD4(2) (Homo sapiens, UniProt O60885); test: BromoScan selectivity panel (Kd); format: binding
T3 construct: the bromodomain-containing protein is BRD4(2)

CBP = CBP (Homo sapiens, UniProt Q92793); test: BromoScan selectivity panel (Kd)
CBP, sequence (Q92793 1081-1197 limits assumed): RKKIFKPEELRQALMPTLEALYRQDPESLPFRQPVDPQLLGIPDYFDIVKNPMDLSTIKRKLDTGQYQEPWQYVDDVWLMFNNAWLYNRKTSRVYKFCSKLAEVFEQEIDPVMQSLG

BAZ2A = target: T4, BAZ2A (Homo sapiens, UniProt Q9UIF9); test: BromoScan selectivity panel (Kd); format: binding
T4 sequence (Q9UIF9 1796-1899 limits assumed): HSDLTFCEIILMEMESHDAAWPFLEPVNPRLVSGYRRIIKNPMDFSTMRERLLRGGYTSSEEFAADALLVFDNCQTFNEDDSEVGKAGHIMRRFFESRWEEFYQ

TRIM24(PHD Bromo.) = target: T5, TRIM24(PHD Bromo.) (Homo sapiens, UniProt O15164); test: BromoScan selectivity panel (Kd); format: binding
T5 construct: TRIM24(PHD Bromo.)
T5 sequence (O15164 824-1006 limits assumed): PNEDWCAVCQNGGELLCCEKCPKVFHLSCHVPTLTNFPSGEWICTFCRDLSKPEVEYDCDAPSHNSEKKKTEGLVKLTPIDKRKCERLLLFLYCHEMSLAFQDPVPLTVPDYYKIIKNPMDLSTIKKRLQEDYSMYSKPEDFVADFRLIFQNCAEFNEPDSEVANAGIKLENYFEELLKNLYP

BAZ2B = target: T6, BAZ2B (Homo sapiens, UniProt Q9UIF8); test: BromoScan selectivity panel (Kd); format: binding
T6 sequence (Q9UIF8 2054-2168 limits assumed): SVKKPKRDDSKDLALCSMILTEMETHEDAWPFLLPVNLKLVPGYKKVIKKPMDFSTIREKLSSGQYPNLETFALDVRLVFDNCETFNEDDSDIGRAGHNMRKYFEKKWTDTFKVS

BRD9 = target: T7, BRD9 (Homo sapiens, UniProt Q9H8M2); test: BromoScan selectivity panel (Kd); format: binding
T7 sequence (Q9H8M2 130-250 limits assumed): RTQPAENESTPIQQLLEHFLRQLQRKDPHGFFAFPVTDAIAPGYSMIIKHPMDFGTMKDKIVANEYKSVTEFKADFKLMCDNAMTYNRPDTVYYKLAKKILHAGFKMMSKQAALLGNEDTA

PERM1(2) = target: T8, PERM1(2) (Homo sapiens, UniProt Q86U86); test: BromoScan selectivity panel (Kd); format: binding
T8 construct: PERM1(2)
T8 sequence (Q86U86 177-287 limits assumed): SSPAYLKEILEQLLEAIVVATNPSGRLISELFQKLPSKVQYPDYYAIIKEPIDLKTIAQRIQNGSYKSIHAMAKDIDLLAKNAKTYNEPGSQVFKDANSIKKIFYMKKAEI

BRDT(2) = BRDT(2) (Homo sapiens, UniProt Q58F21); test: BromoScan selectivity panel (Kd); format: binding
ATAD2B = target: T9, ATAD2B (Homo sapiens, UniProt Q9ULI0); test: BromoScan selectivity panel (Kd); format: binding
T9 sequence (Q9ULI0 953-1085 limits assumed): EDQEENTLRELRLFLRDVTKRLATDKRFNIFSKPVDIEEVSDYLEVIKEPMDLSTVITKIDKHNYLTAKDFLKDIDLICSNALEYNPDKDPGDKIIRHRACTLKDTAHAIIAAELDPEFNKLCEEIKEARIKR

BRPF1 = target: T10, BRPF1 (Homo sapiens, UniProt P55201); test: BromoScan selectivity panel (Kd); format: binding
T10 sequence (P55201 626-740 limits assumed): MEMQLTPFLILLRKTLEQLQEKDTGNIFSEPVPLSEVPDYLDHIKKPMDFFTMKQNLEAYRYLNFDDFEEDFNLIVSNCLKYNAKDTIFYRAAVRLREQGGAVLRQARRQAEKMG

[1] = system: BRD4-dependent Nut-Midline Carcinoma line 797; test: Cell viability (ATPlite) in BRD4 dependant cell line 797; details: for EC50: Homo sapiens
BRD2(2) = target: T11, BRD2(2) (Homo sapiens, UniProt P25440); test: BromoScan selectivity panel (Kd); format: binding
T11 construct: the bromodomain-containing protein is BRD2(2)
T11 sequence (P25440 344-453 limits assumed): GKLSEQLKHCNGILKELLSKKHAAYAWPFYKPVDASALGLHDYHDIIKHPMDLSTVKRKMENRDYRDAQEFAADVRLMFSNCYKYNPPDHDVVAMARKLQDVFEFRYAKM

BRD4(1) = target: T12, BRD4(1) (Homo sapiens, UniProt O60885); test: BromoScan selectivity panel (Kd); format: binding
T12 construct: the bromodomain-containing protein is BRD4(1)

## Cc1noc(C)c1-c1ccc(-c2nc3cnccn3c2NC(C)(C)C)cc1 [UMB32, N-(tert-butyl)-2-(4-(3,5-dimethylisoxazol-4-yl)phenyl)imidazo[1,2-a]pyrazin-3-amine]
BRD1; Table 8, read-out: Kd (nM) BRD1
  Kd: ≥ 40000 nM
BRD1; Table 9, read-out: BromoScan Kd, nM BRD1
  Kd: ≥ 40000 nM
TAF1L(2); Table 8, read-out: Kd (nM) TAF1L(2)
  Kd: 1300 nM
TAF1L(2); Table 9, read-out: BromoScan Kd, nM TAF1L(2)
  Kd: 1300 nM
BRD4(2); Table 8, read-out: Kd (nM) BRD4(2)
  Kd: 31 nM
BRD4(2); Table 9, read-out: BromoScan Kd, nM BRD4(2)
  Kd: 31 nM
CBP; read-out: BromoScan Kd, nM CREBBP, Table 9
  Kd: 4500 nM
CBP; read-out: Kd (nM) CBP, Table 8
  Kd: 4500 nM
BAZ2A; Table 8, read-out: Kd (nM) BAZ2A
  Kd: ≥ 40000 nM
BAZ2A; Table 9, read-out: BromoScan Kd, nM BAZ2A
  Kd: ≥ 40000 nM
TRIM24(PHD Bromo.); Table 8, read-out: Kd (nM) TRIM24(PHD Bromo.)
  Kd: ≥ 40000 nM
TRIM24(PHD Bromo.); Table 9, read-out: BromoScan Kd, nM TRIM24(PHD, Bromo.)
  Kd: ≥ 40000 nM
BAZ2B; Table 8, read-out: Kd (nM) BAZ2B
  Kd: ≥ 40000 nM
BAZ2B; Table 9, read-out: BromoScan Kd, nM BAZ2B
  Kd: ≥ 40000 nM
BRD9; Table 8, read-out: Kd (nM) BRD9
  Kd: ≥ 40000 nM
BRD9; Table 9, read-out: BromoScan Kd, nM BRD9
  Kd: ≥ 40000 nM
PERM1(2); Table 8, read-out: Kd (nM) PERM1(2)
  Kd: ≥ 40000 nM
PERM1(2); Table 9, read-out: BromoScan Kd, nM PERM1(2)
  Kd: ≥ 40000 nM
BRDT(2); Table 8, read-out: Kd (nM) BRDT(2)
  Kd: 75 nM
BRDT(2); Table 9, read-out: BromoScan Kd, nM BRDT(2)
  Kd: 75 nM
ATAD2B; Table 8, read-out: Kd (nM) ATAD2B
  Kd: ≥ 40000 nM
ATAD2B; Table 9, read-out: BromoScan Kd, nM ATAD2B
  Kd: ≥ 40000 nM
BRPF1; Table 8, read-out: Kd (nM) BRPF1
  Kd: ≥ 40000 nM
BRPF1; Table 9, read-out: BromoScan Kd, nM BRPF1
  Kd: ≥ 40000 nM
[1]
  EC50: 1.13 µM
[1]; read-out: 797--EC50 (μM)
  EC50: 0.724 µM
[1]; read-out: BRD4 EC50 (μM)
  EC50: 1.1 µM
[1]; text b618, b620
  cellular activity in the BRD4 dependant cell line: shows cellular activity in the BRD4 dependant cell line
BRD2(2); Table 8, read-out: Kd (nM) BRD2(2)
  Kd: 95 nM
BRD2(2); Table 9, read-out: BromoScan Kd, nM BRD2(2)
  Kd: 95 nM
BRD4(1); Table 8, read-out: Kd (nM) BRD4(1)
  Kd: 80 nM
BRD4(1); Table 9, read-out: BromoScan Kd, nM BRD4(1)
  Kd: 80 nM
